In patent US20080311126A1, “Antisense Oligonucleotides Directed to Ribonucleotide Reducatase R2 and Uses Thereof in Combination Therapies for the Treatment of Cancer” (Genesense Technologies, Inc, priority 2004, published 2008):
Entries after “also recorded” stand apart in the source; their conditions may differ.

Experiments:
[1] = test system: Hela S3 human cervix epitheloid carcinoma cells; assay: Hela S3 hydroxyurea resistant cervix carcinoma xenograft in SCID mice; format: in vivo
Description: Hela S3 human cervix epitheloid carcinoma cells (5×10^5 cells in 100 μl of PBS) were subcutaneously injected into the right flank of 6-7 weeks old female SCID mice. Hela S3 is a hydroxyurea resistant cell line. After the size of tumour reached an approximate volume of 100 mm^3, 3 days post tumour cell injection, SEQ ID NO:1 was administered by bolus infusion into the tail vein every other day at 10 mg/kg 6 times. Control animals received saline alone for the same period. Antitumour effect of SEQ ID NO:1 was further compared to that of Hydroxyurea or Cisplatin alone or in combination. Hydroxyurea was administered intraperitoneally every day at a dose of 250 mg/kg for 10 days. Cisplatin was administered intravenously once a week for three weeks at a dose of 4 mg/kg. Antitumour activities were estimated by the inhibition of tumour volume, which was measured with caliper. Each point represents mean tumour volume calculated from 10 animals per experimental group. […] As expected, treatment with Hydroxyurea during the same period was ineffective against Hydroxyurea-resistant tumour.

[2] = test system: Human Colon Adenocarcinoma; assay: Tumour growth assay, human colon adenocarcinoma in CD-1 nude mice; format: in vivo
[3] = test system: Caki-1 human renal carcinoma; assay: Caki-1 renal tumour xenograft in SCID mice, SEQ ID NO:1 and interferon alpha; format: in vivo
Description: Cell Line: Human renal carcinoma cell line (Caki-1) was grown as monolayer culture in Minimum essential medium (α-MEM) supplemented with 10% fetal bovine serum (FEBS), 0.1 mM non-essential amino acid, 1.0 mM sodium pyruvate, 100 U/ml penicillin, 100 μg/ml streptomycin and 0.25 μg/ml amphotericin B and 2 mM L-alanyl-L-glutamine at 37° C. in an atmosphere of 5% CO2 in air. The tumour cells were routinely subcultured twice weekly by trypsin-EDTA treatment. The cells were harvested from subconfluent logarithmically growing culture by treatment with trypsin-EDTA and counted for tumour inoculation.
Tumour Inoculation: An acclimation period of at least 7 days was allowed between animal receipt and commencement of tumour inoculation. When the female SCID mice were 6-7 weeks of age (20-25 g), each mouse was subcutaneously (s.c.) injected with 5×10^6 Caki-1 human renal carcinoma cells in 0.1 ml of PBS at the right flank of the mice to induce tumour growth.
Dose-Preparation and Treatment: The dose for SEQ ID NO:1 was formulated using the following procedure. From a concentrated stock solution (usually prepared in ddH2O at a concentration of 50 mg/ml and kept at −80° C.), SEQ ID NO:1 was diluted with saline to achieve a final target concentration of 1 or 2.5 mg/ml on the first day of dosing. Enough SEQ ID NO:1 was diluted so that the compound could be administered by bolus infusion into the tail vein every other day for the duration of the experiment. Recombinant interferon alfa-2b (Intron A™) was utilized according to the dose and treatment schedules below. The treatments were started 7 days after the tumour cell inoculation when the tumour size reached an approximate volume of 125 mm^3. Each treatment group contained 10 tumour-bearing mice. Routes of administration are indicated as follows: intravenous (i.v.) and intratumoural (i:t.).
Groups and Treatments: The following treatment groups were evaluated: • 1. Saline treated group-1: saline 0.1 ml/mouse/48 hours, i.v., n=10 • 2. Saline treated group-2: saline 0.05 ml/mouse/5 days/week, i.t., n=10 • 3. […] Intron A 10^3 unit/5 days/week treated group: 10^3 unit Intron A in 0.05 ml saline, i.t., n=10 • 6. Intron A 10^5 unit/5 days/week treated group: 10^5 unit Intron A in 0.05 ml saline, i.t., n=10 • 7. SEQ ID NO:1 1 mg/kg Plus Intron A 10^3 treated group: “3+5”, n=10 • 8. SEQ ID NO:1 1 mg kg Plus Intron A 10^5 treated group: “3+6”, n=10 • 9. SEQ ID NO:1 2.5 mg/kg Plus Intron A […], n=10 • 10. SEQ ID NO:1 2.5 mg/kg Plus Intron A 10^5 treated group: “4+6”, n=10
Mice received 25 treatments with SEQ ID NO:1 and 30 treatments with Intron A. The dosing schedule for Intron A was: treatment with Intron A for 3 consecutive weeks, 1 week off, and treatment with Intron A again for another 3 consecutive weeks. The dosing schedule for SEQ ID NO:1 was treatment with SEQ ID NO:1 every other day for the duration of the experiment.
Endpoints: The effects of SEQ ID NO:1 and Intron A on tumour growth were determined. Tumour sizes were measured every week from day 7 after the tumour cell inoculation in two dimensions using a caliper, and the volume was expressed in mm^3 using the formula: V=0.5 a×b^2, where a and b are the long and short diameters of the tumour, respectively. Mean tumour volumes calculated from each measurement were then plotted in a standard graph to compare the anti-tumour efficacy to that of controls. A day after the last treatment, tumours were excised from the animals and their weights were measured.
A second independent in vivo study was conducted as described in Example 1 utilizing SCID mice (female, 6 weeks old) and Caki-1 (human renal carcinoma cell line) to test the efficacy of SEQ ID NO:1 in combination with IFN alpha Briefly, 5×10^6 Caki-1 human renal carcinoma cells in 0.1 ml of PBS were injected subcutaneously at the right flank of the mice to induce tumour growth. Treatments started on the seventh day after tumour cell injection. […]

[4] = Phase I single agent study of SEQ ID NO:1 in patients with solid tumours or melanoma; format: in vivo, human
[5] = test system: DU145 human prostatic cancer cells; assay: DU145 prostatic tumour xenograft in SCID mice; format: in vivo
Description: In both experiments, DU145 human prostatic cancer cells (1×10^7 cells in 100 μl of PBS) were subcutaneously injected into the right flank of 6-7 weeks old male SCID mice. After the size of tumour reached an approximate volume of 50 mm^3, 13 FIG. 15A) or 11 (FIG. 15B) days post tumour cell injection, SEQ ID NO:1 was administered by bolus infusion into the tail vein every other day at 10 mg/kg 15 times (FIG. 15A) or 14 times (FIG. 15B), respectively. Control animals received saline alone for the same period. Antitumour effect of SEQ ID NO:1 was further compared to that of mitoxantrone (Novantrone®) alone or in combination. Mitoxantrone was administered intravenously once at the beginning of the treatments at a dose of 2 mg/kg (FIG. 15A) or once a week for four weeks at a reduced dose of 0.8 mg/kg (FIG. 15B). All treatments were stopped at day 42 (FIG. 15A) or 38 (FIG. 15B); respectively. A day after the last treatment, tumours were excised from the animals and their weights were measured.

GGCTAAATCGCTCCACCAAG (chemistry not given here) [SEQ ID NO: 1, antisense oligonucleotide that hybridizes to the coding region of human ribonucleotide reductase R2 mRNA]
Tumour weight as % of saline control ([1]; Hela S3 (cervix), hydroxyurea resistance, SCID): 24% | antitumour effect (tumour volume) ([1]; SEQ ID NO:1 10 mg/kg 6 times, Hydroxyurea 250 mg/kg i.p. 10 days, Cisplatin 4 mg/kg i.v. weekly): significant delay of tumour growth; also recorded: superior to the inhibitory effects observed with Cisplatin alone | Inhibition of tumour size ([2]; CD-1 nude mice, Day 18 after tumour implantation): mice by approximately 80% on Day 18 | dose dependence of decrease in tumour weight ([2]; CD-1 nude mice, doses of 1.0 to 6.0 mg/kg): Dose-dependent decrease in tumour | Inhibition of tumour weight ([2]; Human Colon Adenocarcinoma): approximately 80% | anti-tumour efficacy (tumour volume, tumour weight) ([3]; Example 2, SEQ ID NO:1 1 or 2.5 mg/kg/48 hours i.v., Intron A 10^3 or 10^5 unit 5 days/week i.t.): significant anti-tumour efficacy | anti-tumour efficacy (tumour volume, tumour weight) ([3]; Example 3, SEQ ID NO:1 2.5 or 5 mg/kg every 2 days i.v., Intron 10^5 unit 5 days/week i.t.): significant anti-tumour efficacy | anti-tumour efficacy (tumour volume, tumour weight) ([3]; Example 4, oligonucleotide 2.5 mg/kg every 2 days i.v., Intron A 10^5 unit 5 days/week i.t.): significant anti-tumour efficacy | dose with no evidence of toxicity ([4]; human subjects): 148.0 mg/m^2/day | maximum tolerated dose (MTD) ([4]; patients with solid tumours or melanoma): 222.0 mg/m^2/day | Tumour weight as % of saline control ([5]; DU145 (prostatic), Mouse SCID, second of two value columns (two independent experiments)): 41% | antitumour effect (tumour weight) ([5]; FIG. 15A, SEQ ID NO:1 10 mg/kg 15 times, mitoxantrone 2 mg/kg once): significant delay of tumour growth
